# From publication PMC11844072, “Novel 5,6-dichlorobenzimidazole derivatives as dual BRAFWT and BRAFV600E inhibitors: design, synthesis, anti-cancer activity and molecular dynamics simulations” (BMC Chemistry, 2025)
# Key:
# Assay in all cases: NCI 60 single concentration growth inhibition
# Format in all cases: cell-based, human
# [1] = tested on: COLO 205; settings: Homo sapiens, COLO 205, Colon cancer, read-out: GI%
# Method: (§1) The synthesized dichlorobenzimidazoles 10a–p were assayed for their influence on divers cancer cell lines according to the method presented in the Additional file A.
# (§2) 5. Screening of cytotoxic activity against a panel of sixty human tumor cell lines
# (§3) The selected compounds by NCI were evaluated for their anticancer activity in a two-stage process. First, these compounds were screened against the full NCI 60 cell lines panel at a single high dose of 10 µM. Then, the output from the single dose screen is reported as a mean graph. […]
# (§4) Assay protocol. The human tumor cell lines of the cancer screening panel are grown in RPMI 1640 medium containing 5% fetal bovine serum and 2 mM L-glutamine. For a typical screening experiment, cells are inoculated into 96 well microtiter plates in 100 µL at plating densities ranging from 5000 to 40,000 cells/well depending on the doubling time of individual cell lines. After cell inoculation, the microtiter plates are incubated at 37 °C, 5% CO 2, 95% air and 100% relative humidity for 24 h prior to addition of the experimental drugs.
# (§5) After 24 h, two plates of each cell line are fixed in situ with TCA, to represent a measurement of the cell population for each cell line at the time of drug addition (Tz). The experimental drugs are solubilized in dimethyl sulfoxide at 400-fold the desired final maximum test concentration and stored frozen prior to use. At the time of drug addition, an aliquot of frozen concentrate is thawed and diluted to twice the desired final maximum test concentration with complete medium containing 50 µg/mL gentamicin. Additional four, 10-fold or ½ log serial dilutions are made to provide a total of five drug concentrations plus control.
# (§6) Aliquots of […] of these different drug dilutions are added to the appropriate microtiter wells already containing […] of medium, resulting in the required final drug concentrations.
# (§7) Following drug addition, the plates are incubated for an additional 48 h at 37 °C, 5% CO 2, 95% air, and 100% relative humidity. For adherent cells, the assay is terminated by the addition of cold TCA.
# (§8) Cells are fixed in situ by the gentle addition of 50 µL of cold 50% (w/v) TCA (final concentration, 10% TCA) and incubated for 60 min at 4 °C. The supernatant is discarded, and the plates are washed five times with tap water and air dried. Sulforhodamine B (SRB) solution ([…]) at 0.4% (w/v) in 1% acetic acid is added to each well, and plates are incubated for 10 min at room temperature. After staining, unbound dye is removed by washing five times with 1% acetic acid and the plates are air dried. Bound stain is subsequently solubilized with 10 mM trizma base, and the absorbance is read on an automated plate reader at a wavelength of 515 nm. For suspension cells, the methodology is […]
# (§9) the same except that the assay is terminated by fixing settled cells at the bottom of the wells by gently adding 50 µl of 80% TCA (final concentration, 16% TCA). Using the seven absorbance measurements [time zero, (Tz), control growth, (C), and test growth in the presence of drug at the five concentration levels (Ti)], the percentage growth is calculated at each of the drug concentrations […]
# (§10) Percentage growth inhibition is calculated as: [(Ti Tz)/(C–Tz)] x 100 for concentrations for which Ti>/=Tz and [(Ti-Tz)/Tz] x 100 for concentrations for which Ti < Tz. […]
# (§11) Results for each compound were reported as a mean graph of the percent growth of the treated cells when compared to the untreated control cells. There after obtaining the results for one dose assay, analysis of historical Development Therapeutics Programme (DTP) was performed and compounds which satisfies predetermined threshold inhibition criteria is selected for NCI full panel 5 dose assay.
# [2] = tested on: DU-145; settings: Homo sapiens, DU-145, Prostate cancer, read-out: GI%
# Method: as §1, §2, §3, §4, §5, §6, §7, §8, §9, §10, §11
# [3] = tested on: HCC-2998; settings: Homo sapiens, HCC-2998, Colon cancer, read-out: GI%
# Method: as §1, §2, §3, §4, §5, §6, §7, §8, §9, §10, §11
# [4] = tested on: HCT-15; settings: Homo sapiens, HCT-15, Colon cancer, read-out: GI%
# Method: as §1, §2, §3, §4, §5, §6, §7, §8, §9, §10, §11
# [5] = tested on: HOP-92; settings: Homo sapiens, HOP-92, Non-small cell lung cancer, read-out: GI%
# Method: as §1, §2, §3, §4, §5, §6, §7, §8, §9, §10, §11
# [6] = tested on: HT29; settings: Homo sapiens, HT-29, HT29, Colon cancer, read-out: GI%
# Method: as §1, §2, §3, §4, §5, §6, §7, §8, §9, §10, §11
# [7] = tested on: K-562; settings: Homo sapiens, K562, K-562, Leukemia, read-out: GI%
# Method: as §1, §2, §3, §4, §5, §6, §7, §8, §9, §10, §11
# [8] = tested on: LOX IMVIL; settings: Homo sapiens, Melanoma, read-out: GI%
# Method: as §1, §2, §3, §4, §5, §6, §7, §8, §9, §10, §11
# [9] = tested on: NCI-H460; settings: Homo sapiens, NCI-H460, Non-small cell lung cancer, read-out: GI%
# Method: as §1, §2, §3, §4, §5, §6, §7, §8, §9, §10, §11
# [10] = tested on: NCI-H522; settings: Homo sapiens, NCI-H522, Non-small cell lung cancer, read-out: GI%
# Method: as §1, §2, §3, §4, §5, §6, §7, §8, §9, §10, §11
# [11] = tested on: NCI/ADR-RES; settings: Homo sapiens, Ovarian cancer, read-out: GI%
# Method: as §1, §2, §3, §4, §5, §6, §7, §8, §9, §10, §11
# [12] = tested on: OVCAR-3; settings: Homo sapiens, OVCAR-3, Ovarian cancer, read-out: GI%
# Method: as §1, §2, §3, §4, §5, §6, §7, §8, §9, §10, §11
# [13] = tested on: OVCAR-4; settings: Homo sapiens, OVCAR-4, Ovarian cancer, read-out: GI%
# Method: as §1, §2, §3, §4, §5, §6, §7, §8, §9, §10, §11
# [14] = tested on: SNB-19; settings: Homo sapiens, SNB-19, CNS cancer, read-out: GI%
# Method: as §1, §2, §3, §4, §5, §6, §7, §8, §9, §10, §11
# [15] = tested on: SW-620; settings: Homo sapiens, SW-620, Colon cancer, read-out: GI%
# Method: as §1, §2, §3, §4, §5, §6, §7, §8, §9, §10, §11
# [16] = tested on: TK-10; settings: Homo sapiens, TK-10, Renal cancer, read-out: GI%
# Method: as §1, §2, §3, §4, §5, §6, §7, §8, §9, §10, §11
# [17] = tested on: U251; settings: Homo sapiens, U-251, U251, CNS cancer, read-out: GI%
# Method: as §1, §2, §3, §4, §5, §6, §7, §8, §9, §10, §11
SMILES,inhibition at 10 µM [1],inhibition at 10 µM [2],inhibition at 10 µM [3],inhibition at 10 µM [4],inhibition at 10 µM [5],inhibition at 10 µM [6],inhibition at 10 µM [7],inhibition at 10 µM [8],inhibition at 10 µM [9],inhibition at 10 µM [10],inhibition at 10 µM [11],inhibition at 10 µM [12],inhibition at 10 µM [13],inhibition at 10 µM [14],inhibition at 10 µM [15],inhibition at 10 µM [16],inhibition at 10 µM [17]
"COc1ccc(-c2nc3cc(Cl)c(Cl)cc3n2CC(=O)NN=Cc2cccc(OCC(=O)O)c2)cc1 [Compound 10e, 2-(3-((2-(2-(5,6-Dichloro-2-(4-methoxyphenyl)-1H-benzo[d]imidazol-1-yl)acetyl)hydrazono)methyl)phenoxy)acetic acid]",< 5%,< 5%,< 5%,< 5%,< 5%,< 5%,< 5%,< 5%,< 5%,< 5%,< 5%,< 5%,< 5%,< 5%,< 5%,< 5%,< 5%
"COc1ccc(-c2nc3cc(Cl)c(Cl)cc3n2CC(=O)NN=Cc2cccc(O)c2)cc1 [Compound 10a, 2-(5,6-Dichloro-2-(4-methoxyphenyl)-1H-benzo[d]imidazol-1-yl)-N'-(3-hydroxybenzylidene)acetohydrazide]",46%,44.2%,35.9%,60%,23.8%,41.2%,66%,29%,46.8%,30%,44.5%,36.6%,68.1%,50.4%,31.7%,37.2%,39.3%
